Reference: US6281342A, “Pradimicin compounds” (Bristol-Myers Squibb Company, priority 1994, dated 2001)
Values after ≈ are worked out from the molar mass of the structure shown. Read-outs that look alike come from different tables or passages of the source.

Assays:
Candida albicans A9540 [1] = assay: animal or person; assay type: in vivo, male ICR mice infected with Candida albicans A9540
Description: (§1) The in vivo therapeutic efficacies of seven 4'-N-substituted pradimicin derivatives, KHM-1, KHM-2, KHM-3, KHM-4, KHM-5, KHM-6 and KHM-7 were evaluated in the mouse infected with Candida albicans A9540 and Aspergillus fumigatusIAM 2034. Groups of five specific-pathogen-free male ICR mice weighing 20-25 g at each dose level were intravenously infected with approximately 10 times the 50% lethal dose of C. albicans A9540 (1×10^6 cells/mouse) or A. fumigatus IAM 2034 (1×10^7 cells/mouse). Immediately after the fungal infection, test compounds dissolved with 10% DMSO in distilled water were intravenously given to the mouse at the dosed volume of 0.1 ml/10 g of body weight. […] Untreated control animals died 7 to 13 days post-infection.

[2] = tested on: Trichophyton mentagrophytes #4329; assay: MIC, two-fold agar dilution, T. mentagrophytes #4329; assay type: cell-based
Description: (§2) Minimum inhibitory concentrations (MICs) of nine 4'-N-substituted pradimicin derivatives were determined by two-fold agar dilution method on phosphate-buffered yeast morphology agar (YMA, pH 7.0, Difco Laboratories). A 5-μl of fungal cell suspension containing 2×10^6 cells/ml (2×10^7 cells/ml for Trichophyton mentagrophytes) were spotted on the surface of the agar plates containing test compound. MICs were recorded after 40-hour incubation at 28° C. except for T. mentagrophytes, which required 60-hour incubation to produce visually evaluable growth on the drug-free control plates and were defined as the lowest antibiotic concentrations showing no growth or less than five discrete colonies per spot.
(§3) Medium: yeast morphology agar + 1/15 M phosphate buffer (pH 7.0)
(§4) Incubation conditions: 28° C., 40 hours (C. albicans ATCC 38247 & T.
(§5) mentagrophytes #4329: 28° C., 60 hours).
(§6) Medium: Yeast morphology agar + 1/15 phosphate buffer (pH 7.0).

Candida albicans A9540 [3] = assay: MIC, two-fold agar dilution, C. albicans A9540; assay type: cell-based
Description: as §2, §3, §4, §6

[4] = tested on: Candida albicans IAM 4888; assay: MIC, two-fold agar dilution, C. albicans IAM 4888; assay type: cell-based; details: IAM4888, YMA pH 7.0, 28° C., 40 hours
Description: as §2, §3, §4, §6

[5] = tested on: Candida tropicalis IFO 10241; assay: MIC, two-fold agar dilution, C. tropicalis IFO 10241; assay type: cell-based; details: IFO10241, YMA pH 7.0, 28° C., 40 hours
Description: as §2, §3, §4, §6

[6] = tested on: Aspergillus fumigatus IAM 2034; assay: Therapeutic efficacy in Aspergillus fumigatus systemic infection in mice; assay type: in vivo, male ICR mice infected with Aspergillus fumigatus IAM 2034; details: for S/T (No. of survivors/tested) / responders at 12.5 mg/kg / responders at 25 mg/kg / responders at 50 mg/kg: 20th day post-infection; for responders at 12.5 mg/kg / responders at 25 mg/kg / responders at 50 mg/kg: read-out: S/T (No. of survivors/tested) (converted)
Description: as §1

[7] = tested on: Saccharomyces cerevisiae ATCC 9763; assay: MIC, two-fold agar dilution, S. cerevisiae ATCC 9763; assay type: cell-based; details: ATCC9763, YMA pH 7.0, 28° C., 40 hours
Description: as §2, §3, §4, §6

[8] = tested on: Candida albicans ATCC 38247; assay: MIC, two-fold agar dilution, C. albicans ATCC 38247; assay type: cell-based; details: ATCC38247, YMA pH 7.0, 28° C., 60 hours (table footnote)
Description: as §2, §3, §4, §5, §6

[9] = tested on: Cryptococcus neoformans IAM 4514; assay: MIC, two-fold agar dilution, C. neoformans IAM 4514; assay type: cell-based; details: IAM4514
Description: as §2, §3, §4, §6

Candida albicans 83-2-14 = assay: MIC, two-fold agar dilution, C. albicans 83-2-14; assay type: cell-based; details: 83214, YMA pH 7.0, 28° C., 40 hours
Description: as §2, §3, §4, §6

[10] = tested on: Aspergillus fumigatus IAM 2034; assay: MIC, two-fold agar dilution, A. fumigatus IAM 2034; assay type: cell-based; details: IAM2034
Description: as §2, §3, §4, §6

Candida tropicalis 85-8 = assay: MIC, two-fold agar dilution, C. tropicalis 85-8; assay type: cell-based; details: 858, YMA pH 7.0, 28° C., 40 hours
Description: as §2, §3, §4, §6

[11] = tested on: Cryptococcus neoformans D49; assay: MIC, two-fold agar dilution, C. neoformans D49; assay type: cell-based; details: YMA pH 7.0, 28° C., 40 hours
Description: as §2, §3, §4, §6

[12] = tested on: Candida albicans ATCC 32354; assay: MIC, two-fold agar dilution, C. albicans ATCC 32354; assay type: cell-based; details: ATCC32354, YMA pH 7.0, 28° C., 40 hours
Description: as §2, §3, §4, §6

[13] = Candida albicans, A9540, 480 h, Table 2, C. albicans, mice, iv, 95% confidence limits in parentheses, read-out: PD50 (50% protection dose)
[14] = Table 3, Trichophyton mentagrophytes #4329, YMA, read-out: MIC TM-4
[15] = Trichophyton mentagrophytes #4329, YMA pH 7.0, 28° C., 60 hours, read-out: MIC
[16] = Candida albicans A9540, YMA pH 7.0, 28° C., 40 hours, read-out: MIC
[17] = Table 3, Candida albicans A9540, YMA, read-out: MIC Ca-4
[18] = IAM2034, 480 h, Table 3, Aspergillus fumigatus IAM 2034, iv, read-out: PD50 (mice) Af-3
[19] = Cryptococcus neoformans IAM 4514, YMA pH 7.0, 28° C., 40 hours, read-out: MIC
[20] = Table 3, Cryptococcus neoformans IAM 4514, YMA, read-out: MIC Cn-2
[21] = Aspergillus fumigatus IAM 2034, YMA pH 7.0, 28° C., 40 hours, read-out: MIC
[22] = Table 3, Aspergillus fumigatus IAM 2034, YMA, read-out: MIC Af-3
[23] = 480 h, Table 3, Candida albicans A9540, iv, read-out: PD50 (mice) Ca-4
[24] = Aspergillus fumigatus, IAM2034, 480 h, A. fumigatus, mice, 12.5 mg/kg iv
[25] = Aspergillus fumigatus, IAM2034, 480 h, A. fumigatus, mice, 25 mg/kg iv
[26] = Aspergillus fumigatus, IAM2034, 480 h, A. fumigatus, mice, 50 mg/kg iv
[27] = Aspergillus fumigatus, IAM2034, 480 h, Table 2, A. fumigatus, mice, iv, 95% confidence limits in parentheses, read-out: PD50 (50% protection dose)
[28] = Candida albicans, A9540, in Mus musculus, iv, 480 h, read-out: S/T (No. of survivors/tested)

Compound | ED50 (Candida albicans A9540 [1]; [13]) [mg/kg] | MIC [2, 14] [µg/mL] | MIC [2, 15] [µg/mL] | MIC (Candida albicans A9540 [3]; [16]) [µg/mL] | MIC (Candida albicans A9540 [3]; [17]) [µg/mL] | MIC [4] [µg/mL] | MIC [5] [µg/mL] | ED50 [6, 18] [mg/kg] | MIC [7] [µg/mL] | MIC [8] [µg/mL] | MIC [9, 19] [µg/mL] | MIC [9, 20] [µg/mL] | MIC (Candida albicans 83-2-14) [µg/mL] | MIC [10, 21] [µg/mL] | MIC [10, 22] [µg/mL] | MIC (Candida tropicalis 85-8) [µg/mL] | MIC [11] [µg/mL] | MIC [12] [µg/mL] | ED50 (Candida albicans A9540 [1]; [23]) [mg/kg] | responders at 12.5 mg/kg [6, 24] [%] | also measured
COc1cc(O)c2c(c1)C(=O)c1c(cc3c(c1O)-c1c(cc(C)c(C(=O)N[C@H](C)C(=O)O)c1O)[C@H](O[C@@H]1O[C@H](C)[C@H](N(C)C#N)[C@H](O[C@@H]4OC[C@@H](O)[C@H](O)[C@H]4O)[C@H]1O)[C@H]3O)C2=O [KHM-1, 4'-N-Cyanogradimicin A] | 13 | 25 (≈ 28.9 µM) | 25 (≈ 28.9 µM) | 3.1 (≈ 3.58 µM) | 3.1 (≈ 3.58 µM) | 3.1 (≈ 3.58 µM) | 12.5 (≈ 14.4 µM) | > 50 | 1.6 (≈ 1.85 µM) | 1.6 (≈ 1.85 µM) | 3.1 (≈ 3.58 µM) | 3.1 (≈ 3.58 µM) | 3.1 (≈ 3.58 µM) | 12.5 (≈ 14.4 µM) | 12.5 (≈ 14.4 µM) | 12.5 (≈ 14.4 µM) | 3.1 (≈ 3.58 µM) | 3.1 (≈ 3.58 µM) |  |  | S/T (No. of survivors/tested) (Candida albicans A9540 [1]; C. albicans, mice, 6.3 mg/kg iv, 20th day post-infection): 1/5; S/T (No. of survivors/tested) (Candida albicans A9540 [1]; C. albicans, mice, 12.5 mg/kg iv, 20th day post-infection): 3/5; S/T (No. of survivors/tested) (Candida albicans A9540 [1]; C. albicans, mice, 25 mg/kg iv, 20th day post-infection): 4/5; S/T (No. of survivors/tested) (Candida albicans A9540 [1]; C. albicans, mice, 50 mg/kg iv, 20th day post-infection): 5/5; S/T (No. of survivors/tested) ([6]; A. fumigatus, mice, 6.3 mg/kg iv): 0.5; S/T (No. of survivors/tested) ([6]; A. fumigatus, mice, 12.5 mg/kg iv): 2/5; S/T (No. of survivors/tested) ([6]; A. fumigatus, mice, 25 mg/kg iv): 0/5; S/T (No. of survivors/tested) ([6]; A. fumigatus, mice, 50 mg/kg iv): 1/5; ED50 ([6]; Aspergillus fumigatus, IAM2034, iv, 480 h, read-out: PD50 (50% protection dose)): > 50 mg/kg
COc1cc(O)c2c(c1)C(=O)c1c(cc3c(c1O)-c1c(cc(C)c(C(=O)N[C@H](CO)C(=O)O)c1O)[C@H](O[C@@H]1O[C@H](C)[C@H](N(C)C#N)[C@H](O[C@@H]4OC[C@@H](O)[C@H](O)[C@H]4O)[C@H]1O)[C@H]3O)C2=O [KHM-3, 4'-Cyanooradimicin FA-1] | > 50 | 50 (≈ 56.7 µM) | 50 (≈ 56.7 µM) | 6.3 (≈ 7.14 µM) | 6.3 (≈ 7.14 µM) | 6.3 (≈ 7.14 µM) | 12.5 (≈ 14.2 µM) | > 50 | 1.6 (≈ 1.81 µM) | 3.1 (≈ 3.52 µM) | 6.3 (≈ 7.14 µM) | 6.3 (≈ 7.14 µM) | 6.3 (≈ 7.14 µM) | 25 (≈ 28.4 µM) | 25 (≈ 28.4 µM) | 12.5 (≈ 14.2 µM) | 6.3 (≈ 7.14 µM) | 6.3 (≈ 7.14 µM) | > 50 | 0 | responders at 12.5 mg/kg (Candida albicans A9540 [1]; Candida albicans, A9540, 480 h, C. albicans, mice, 12.5 mg/kg iv, 20th day post-infection, read-out: S/T (No. of survivors/tested) (converted)): 0%; responders at 25 mg/kg (Candida albicans A9540 [1]; Candida albicans, A9540, 480 h, C. albicans, mice, 25 mg/kg iv, 20th day post-infection, read-out: S/T (No. of survivors/tested) (converted)): 0%; responders at 50 mg/kg (Candida albicans A9540 [1]; Candida albicans, A9540, 480 h, C. albicans, mice, 50 mg/kg iv, 20th day post-infection, read-out: S/T (No. of survivors/tested) (converted)): 40%; responders at 25 mg/kg [6, 25]: 0%; responders at 50 mg/kg [6, 26]: 0%; ED50 [6, 27]: > 50 mg/kg
COc1cc(O)c2c(c1)C(=O)c1c(cc3c(c1O)-c1c(cc(C)c(C(=O)N[C@H](CO)C(=O)O)c1O)[C@H](O[C@@H]1O[C@H](C)[C@H](N(C)N=O)[C@H](O[C@@H]4OC[C@@H](O)[C@H](O)[C@H]4O)[C@H]1O)[C@H]3O)C2=O [KHM-5, 4'-N-Nitrosopradimicin FA-1] | > 50 | 6.3 (≈ 7.11 µM) | 6.3 (≈ 7.11 µM) | 6.3 (≈ 7.11 µM) | 6.3 (≈ 7.11 µM) | 6.3 (≈ 7.11 µM) | 12.5 (≈ 14.1 µM) | > 50 | 3.1 (≈ 3.5 µM) | 3.1 (≈ 3.5 µM) | 3.1 (≈ 3.5 µM) | 3.1 (≈ 3.5 µM) | 6.3 (≈ 7.11 µM) | 3.1 (≈ 3.5 µM) | 3.1 (≈ 3.5 µM) | 12.5 (≈ 14.1 µM) | 3.1 (≈ 3.5 µM) | 6.3 (≈ 7.11 µM) | > 50 | 0 | responders at 12.5 mg/kg (Candida albicans A9540 [1]; [28]): 20%; responders at 25 mg/kg (Candida albicans A9540 [1]; [28]): 0%; responders at 50 mg/kg (Candida albicans A9540 [1]; [28]): 40%; responders at 25 mg/kg [6, 25]: 0%; responders at 50 mg/kg [6, 26]: 40%; ED50 [6, 27]: > 50 mg/kg
